Results as given in ChEMBL document CHEMBL1121781, “Potential antitumor agents. 34. Quantitative relationships between DNA binding and molecular structure for 9-anilinoacridines substituted in the anilino ring” (J Med Chem, 1981).
Activity calls are given as the source filed them. The rule behind the calls is not given here.

How the values were obtained:
Calf thymus DNA [1] = conditions: Bos taurus
Description: (§1) Inhibitory concentration against ethidium binding to DNA

Nucleic Acid [2] = test system: Nucleic Acid
Description: Association constant for binding to poly [d(A-T)]

Nucleic Acid [3] = test system: Nucleic Acid; remark: listed apart in the source
Description: Association constant for binding to poly [d(G-C)]

Calf thymus DNA [4] = conditions: Bos taurus; remark: listed apart in the source
Description: as §1

Description for Mus musculus: Maximum percent increase in life span of mice
Description for physchem: Ionisation constant (pKa)

pKa (physchem) | Log K (Nucleic Acid [2]) | Log K (Nucleic Acid [3]) | SMILES | C50 (Calf thymus DNA [1]) [µM] | ILS (Mus musculus) | C50 (Calf thymus DNA [4]) [µM]
7.76 | 5.25 | 5.23 | Cc1ccccc1Nc1c2ccccc2nc2ccccc12 | 67 | – | –
5.81 | 5.86 | 5.88 | CS(=O)(=O)c1ccc(Nc2c3ccccc3nc3ccccc23)cc1 | – | inactive | 14
6.9 | 6.19 | 6.13 | Ic1ccc(Nc2c3ccccc3nc3ccccc23)cc1 | – | inactive | 8.2
